Assays:
human TLR8 = target: T1, human TLR8 (Homo sapiens, UniProt Q9NR97); test: HEK293-Blue-hTLR-8 cells assay; format: cell-based; conditions: HEK293-Blue-hTLR8 cells, R848 stimulation, 20 hrs, SEAP reporter; read-out: HEK/hTLR8 IC50
T1 construct: host or cells: HEK293 (HEK-Blue hTLR8)
T1 sequence (Q9NR97 27-1041): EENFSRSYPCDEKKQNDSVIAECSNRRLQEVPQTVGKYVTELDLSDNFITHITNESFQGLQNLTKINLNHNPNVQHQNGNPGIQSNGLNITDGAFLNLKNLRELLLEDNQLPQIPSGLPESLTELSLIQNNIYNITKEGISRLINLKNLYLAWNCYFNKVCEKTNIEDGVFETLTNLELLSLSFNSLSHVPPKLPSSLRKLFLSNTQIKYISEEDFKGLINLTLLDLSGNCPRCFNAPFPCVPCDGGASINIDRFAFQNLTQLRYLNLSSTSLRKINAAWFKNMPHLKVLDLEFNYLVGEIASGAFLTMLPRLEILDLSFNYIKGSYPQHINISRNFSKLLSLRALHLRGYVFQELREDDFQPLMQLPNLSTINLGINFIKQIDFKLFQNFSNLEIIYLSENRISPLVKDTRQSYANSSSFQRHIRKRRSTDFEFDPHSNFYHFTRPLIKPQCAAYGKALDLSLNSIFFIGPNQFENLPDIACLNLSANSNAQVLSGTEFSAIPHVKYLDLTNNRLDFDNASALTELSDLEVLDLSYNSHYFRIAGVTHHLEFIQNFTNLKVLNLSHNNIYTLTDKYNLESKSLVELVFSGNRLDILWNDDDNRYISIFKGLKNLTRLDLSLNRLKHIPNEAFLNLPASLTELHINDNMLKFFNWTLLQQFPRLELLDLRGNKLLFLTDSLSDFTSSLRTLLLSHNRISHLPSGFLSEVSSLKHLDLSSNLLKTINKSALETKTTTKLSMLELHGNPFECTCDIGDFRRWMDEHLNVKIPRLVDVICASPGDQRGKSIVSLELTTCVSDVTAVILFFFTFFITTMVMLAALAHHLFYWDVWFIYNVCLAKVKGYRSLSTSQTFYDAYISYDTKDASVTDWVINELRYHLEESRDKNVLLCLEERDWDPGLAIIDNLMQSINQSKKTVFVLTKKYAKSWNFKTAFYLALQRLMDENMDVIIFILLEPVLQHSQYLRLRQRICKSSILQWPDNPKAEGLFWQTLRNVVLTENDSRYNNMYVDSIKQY
Excerpt: A stable HEK293-Blue-hTLR-8 cell line was purchased from InvivoGen (Cat. #: hkb-htlr8, San Diego, Calif., USA). These cells were originally designed for studying the stimulation of human TLR8 by monitoring the activation of NF-κB. A SEAP (secreted embryonic alkaline phosphatase) reporter gene was placed under the control of the IFN-β minimal promoter fused to five NF-κB and AP-1-binding sites. The SEAP was induced by activating NF-κB and AP-1 via stimulating HEK-Blue hTLR8 cells with TLR8 ligands. Therefore the reporter expression was declined by TLR8 antagonist under the stimulation of a ligand, such as R848, for incubation of 20 hrs. The cell culture supernatant SEAP reporter activity was determined using QUANTI-Blue™ kit (Cat. #: rep-qb1, Invivogen, San Diego, Ca, USA) at a wavelength of 640 nm, a detection medium that turns purple or blue in the presence of alkaline phosphatase.
HEK293-Blue-hTLR8 cells were incubated at a density of 250,000-450,000 cells/mL in a volume of 170 μL in a 96-well plate in Dulbecco's Modified Eagle's medium (DMEM) containing 4.5 g/L glucose, 50 U/mL penicillin, […], […], 2 mM L-glutamine, 10% (v/v) heat-inactivated fetal bovine serum with addition of 20 μL test compound in a serial dilution in the presence of final DMSO at 1% and 10 μL of 60 uM R848 in above DMEM, perform incubation under 37° C. in a CO2 incubator for 20 hrs. Then 20 μL of the supernatant from each well was incubated with […] Quanti-blue substrate solution at 37° C. for 2 hrs and the absorbance was read at 620-655 nm using a spectrophotometer. The signaling pathway that TLR8 activation leads to downstream NF-κB activation has been widely accepted, and therefore similar reporter assay was modified for evaluating TLR8 antagonist.

[1] = Human microsome stability assay; format: in vitro ADME; conditions: 1 μM test compound, 0.5 mg/mL liver microsomal protein, 37° C., up to 30 minutes; 6.2 = detection limit
Description: Human Microsome Stability Assay
The human microsomal stability assay is used for early assessment of metabolic stability of a test compound in human liver microsomes.
Human liver microsomes (Cat. NO.: 452117, Corning, USA; Cat. NO.:H2610, Xenotech, USA) were preincubated with test compound for 10 minutes at 37° C. in 100 mM potassium phosphate buffer, pH 7.4. The reactions were initiated by adding NADPH regenerating system. The final incubation mixtures contained 1 μM test compound, 0.5 mg/mL liver microsomal protein, 1 mM MgCl2, 1 mM NADP, 1 unit/mL isocitric dehydrogenase and 6 mM isocitric acid in 100 mM potassium phosphate buffer, pH 7.4. After incubation times of 0, 3, 6, 9, 15 and 30 minutes at 37° C., 300 μL of cold acetonitrile (including internal standard) was added to 100 μL incubation mixture to terminate the reaction. Following precipitation and centrifugation, the amount of compound remaining in the samples were determined by LC-MS/MS. Controls of no NADPH regenerating system at zero and 30 minutes were also prepared and analyzed.

Compound | IC50 (human TLR8) | Clearance of Human microsome [1]
C[C@@H]1CN(c2ccc(C#N)c3ncccc23)C[C@H](CN2CC(n3ncc4c3CCN[C@@H]4C)C2)O1 [Example 20, 5-[(2R,6S)-2-methyl-6-[[3-[(4R)-4-methyl-4,5,6,7-tetrahydropyrazolo[4,3-c]pyridin-1-yl]azetidin-1-yl]methyl]morpholin-4-yl]quinoline-8-carbonitrile] | 28 nM | 6.2 mL/min/kg
C[C@@H]1CN(c2ccc(C#N)c3ncccc23)C[C@H](CN2CC(n3cc4c(n3)CCNC4)C2)O1 [Example 2, 5-[(2R,6S)-2-methyl-6-[[3-(4,5,6,7-tetrahydropyrazolo[4,3-c]pyridin-2-yl)azetidin-1-yl]methyl]morpholin-4-yl]quinoline-8-carbonitrile] | 19 nM | 6.2 mL/min/kg
C[C@@H]1CN(c2ccc(C#N)c3ncccc23)C[C@H](CN2CC(n3cc4c(n3)CNC4)C2)O1 [Example 11, 5-[(2S,6R)-2-[[3-(5,6-dihydro-4H-pyrrolo[3,4-c]pyrazol-2-yl)azetidin-1-yl]methyl]-6-methyl-morpholin-4-yl]quinoline-8-carbonitrile] | 19 nM | 6.2 mL/min/kg
C[C@@H]1CN(c2ccc(C#N)c3ncccc23)C[C@H](CN2CC(n3ncc4c3CCN[C@H]4C)C2)O1 [Example 22, 5-[(2R,6S)-2-methyl-6-[[3-[(4S)-4-methyl-4,5,6,7-tetrahydropyrazolo[4,3-c]pyridin-1-yl]azetidin-1-yl]methyl]morpholin-4-yl]quinoline-8-carbonitrile] | 37 nM | 6.2 mL/min/kg

Further compounds by falling IC50 (human TLR8), results first:

IC50 (human TLR8) | Clearance of Human microsome [1] | Compound
19 nM | 7.0 mL/min/kg | C[C@@H]1CN(c2ccc(C#N)c3ncccc23)C[C@H](CN2CC(n3ncc4c3C[C@H](C)NC4)C2)O1 [Example 18, 5-[(2R,6S)-2-methyl-6-[[3-[(6S)-6-methyl-4,5,6,7-tetrahydropyrazolo[4,3-c]pyridin-1-yl]azetidin-1-yl]methyl]morpholin-4-yl]quinoline-8-carbonitrile]
16 nM | 7.2 mL/min/kg | C[C@@H]1Cc2c(cnn2C2CN(C[C@H]3CN(c4ccc(C#N)c5ncccc45)C[C@@H](C)O3)C2)CN1 [Example 16, 5-[(2R,6S)-2-methyl-6-[[3-[(6R)-6-methyl-4,5,6,7-tetrahydropyrazolo[4,3-c]pyridin-1-yl]azetidin-1-yl]methyl]morpholin-4-yl]quinoline-8-carbonitrile]
14 nM | 6.2 mL/min/kg | C[C@@H]1Cc2cn(C3CN(C[C@H]4CN(c5ccc(C#N)c6ncccc56)C[C@@H](C)O4)C3)nc2CN1 (single isomer, unassigned) [Example 30]

From patent publication US20210300924A1, “5-[6-[[3-(4,5,6,7-TETRAHYDROPYRAZOLO[4,3-C]PYRIDIN-1-YL)AZETIDIN-1-YL]METHYL]MORPHOLIN-4-YL]QUINOLINE-8-CARBONITRILE DERIVATIVES AND SIMILAR COMPOUNDS AS TLR7-9 ANTAGONISTS FOR TREATING SYSTEMIC LUPUS ERYTHEMATOSUS” (Hoffmann-La Roche Inc., priority 2018, published 2021)
